US7771978B2, “β1,4mannosyltransferases” (priority 2003, dated 2010)

molecular target: T1, Egghead β1-4-mannosyltransferase (Drosophila melanogaster, UniProt O01346); assay: Egghead transfer of Man to glycosphingolipid acceptors (thin-layer chromatography/autoradiography); format: biochemical; conditions: GDP-Man donor; microsomal fraction; 4 h
T1 construct: a secreted version of egghead was prepared as described for the full length construct; made in house; host or cells: baculovirus-infected Sf9 and High Five insect cells (microsomal fractions)
T1 sequence (O01346 1-457): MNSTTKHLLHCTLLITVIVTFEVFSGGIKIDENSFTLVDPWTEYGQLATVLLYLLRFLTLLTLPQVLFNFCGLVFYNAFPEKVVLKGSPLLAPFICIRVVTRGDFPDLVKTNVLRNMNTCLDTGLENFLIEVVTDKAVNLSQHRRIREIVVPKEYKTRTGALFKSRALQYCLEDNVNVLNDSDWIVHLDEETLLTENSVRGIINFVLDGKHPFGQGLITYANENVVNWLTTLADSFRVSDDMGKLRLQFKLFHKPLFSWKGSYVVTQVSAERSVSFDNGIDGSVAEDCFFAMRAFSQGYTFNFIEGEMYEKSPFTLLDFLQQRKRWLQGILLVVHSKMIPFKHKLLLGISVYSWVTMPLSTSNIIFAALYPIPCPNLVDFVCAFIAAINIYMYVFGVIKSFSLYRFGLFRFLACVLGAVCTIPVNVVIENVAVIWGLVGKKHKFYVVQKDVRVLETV
Procedure: Microsomal fraction of egghead (Egh) and GalNAc-T4 (GT4) were incubated with Glcβ1-1Cer, LacCer, or no glycolipid and GDP-Man as described in Experimental Procedures. Autoradiography of thin-layer chromatography of reaction products (4 h). Plate was run in chloroform-methanol-water (60/38/10, v/v/v). Migration of standard glycolipids is indicated with arrows.
Glycosphingolipids of the fruit fly are based on the arthroseries GlcNAcβ1-3Manβ1-4Glcβ1-1 Cer core. […] Evidence in support hereof was provided by showing that brainiac utilizes the product formed by egghead (FIG. 5). This assay was carried out with n-octyl-β-Glc as initial acceptor substrate because it served as a better substrate than GlcCer under the assay conditions used.
An expression construct of the full coding region of egghead was prepared by RT-PCR using D. melanogaster mRNA and the sense primer Egh001 (5′-[…]-3′, SEQ ID NO: 4) with a BglII restriction site and the anti-sense primer Egh002 (5′-[…]-3′, SEQ ID NO: 5) with a XbaI restriction site. The resulting 1.1 Kb fragment was cloned into the BglII/XbaI sites of pVL1393 (PharMingen) and pVL1393-MYC. Furthermore an expression construct for a secreted version of egghead was prepared as described for the full length construct but using sense primer Egh003 (5′[…]-3′, SEQ ID NO: 6) with a BglII restriction site and the anti-sense primer Egh002. The resulting 1 Kb fragment was cloned into pAcGP67 Baculo-virus expression vector. Expression constructs pVL-egghead-full and pVL-egghead-Myc-full and pAcGP67-egghead-sol were co-transfected with Baculo-Gold™ DNA (Pharmingen) in Sf9 cells as described (12). […] Pellets were used at 10 mg/ml (Protein concentration determined by BCA, Pierce). Reaction products of soluble acceptors were quantified by chromatography on Dowex AG1-X8 (Sigma). Assays with glycosphingolipids included 5 mM 2-Acetamido-2-deoxy-D-Glucono-1,5-lactone (inhibitor of hexosaminidase activity), and products were purified on octadecyl-silica cartridges (Supelco) and analyzed by high performance thin-layer chromatography followed by autoradiography.

Row | Substance | glycosphingolipid as acceptor substrate of egghead (in words)
1 | Galβ1-4Glcβ1-Cer [LacCer] | does not serve as substrate
2 | Glcβ1-1Cer | utilizes
3 | Galβ1-1Cer | not to serve as a substrate
